Like-named read-outs stand apart in the source and are kept apart here.

For 19 compounds, IC50 results are on record in patent publication US9096615B2, “Bridged bicyclic amino thiazine dioxide compounds as inhibitors of beta-secretase and methods of use thereof” (AMGEN INC., priority 2013, dated 2015).

Assay [1] deals with T1, Cathepsin D (Cat D) (Homo sapiens, UniProt P07339).
T1 construct: made in house; host or cells: CHO cells
Nature of the assay: In vitro enzymatic Cathepsin D (Cat D) FRET assay. The class given is biochemical. The following applies: read-out: CatD IC50. An outline of the steps: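 Fluorescence (500 nm excitation, 580 nm emission) was measured after Tris quench of a 1 h cleavage of 20 nM quenched peptide substrate. Before that, 9 nM CHO-expressed human Cat D sat with compound for 1 h at pH 3.5 (0.05 M citrate, 5 mM CHAPS, 10% DMSO final).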

The target in assay [2] is BACE1 (Homo sapiens, UniProt P56817). Kind of assay: In vitro enzymatic BACE FRET assay. The class given is biochemical. An outline of the steps:
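Fluorescence (excitation 488 nm, […]) from cleavage of quenched peptide substrate (50 nM), reaction run 1 h after 1 h enzyme–inhibitor pre-incubation, then neutralised with Tris. Conditions: 0.2 nM enzyme, pH 4.2 acetate 0.05 M, 10% DMSO final, 100 uM genapol.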

For assay [3], the system named is Aβ40 in conditioned medium of cells stably expressing Amyloid Precursor Protein (APP). Nature of the assay: In vitro BACE cell-based assay (HEK cell assay, Aβ40 sandwich ELISA). The following applies: Homo sapiens, HEK293. An outline of the steps:
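IC50 was derived from percent-of-control Aβ40 against concentration, with Aβ40 quantified by time-resolved fluorescence ELISA (pAb40/6E10-biotin, 4 °C incubations). Supernatants were sampled after 24 h of compound exposure (10 points, starting 100 or 10 μM, 0.1% DMSO) of cells stably expressing APP.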
A general note: ELISA stands for enzyme-linked immunosorbent assay.

The mark [4] stands for this setting: average IC50, read-out: BACE1 Enzyme assay IC50.
[5] abbreviates: average IC50, read-out: BACE1 cell assay IC50.
Setting [6] is: read-out: BACE1 FRET assay IC50.
[7] abbreviates: Aβ40, 24 h incubation, read-out: HEK cell assay IC50.

T1 sequence (P07339 65-412, species assumed): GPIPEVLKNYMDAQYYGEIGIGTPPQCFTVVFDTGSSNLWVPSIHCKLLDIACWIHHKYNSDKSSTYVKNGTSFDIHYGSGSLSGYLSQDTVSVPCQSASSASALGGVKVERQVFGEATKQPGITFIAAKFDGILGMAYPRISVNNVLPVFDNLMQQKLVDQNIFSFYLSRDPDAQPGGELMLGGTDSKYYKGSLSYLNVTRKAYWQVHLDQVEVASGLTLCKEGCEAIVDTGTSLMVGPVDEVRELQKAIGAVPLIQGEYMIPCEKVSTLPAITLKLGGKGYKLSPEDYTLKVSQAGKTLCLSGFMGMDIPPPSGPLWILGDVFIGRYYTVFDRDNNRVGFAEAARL
Sequence of BACE1 (P56817 46-501, species assumed): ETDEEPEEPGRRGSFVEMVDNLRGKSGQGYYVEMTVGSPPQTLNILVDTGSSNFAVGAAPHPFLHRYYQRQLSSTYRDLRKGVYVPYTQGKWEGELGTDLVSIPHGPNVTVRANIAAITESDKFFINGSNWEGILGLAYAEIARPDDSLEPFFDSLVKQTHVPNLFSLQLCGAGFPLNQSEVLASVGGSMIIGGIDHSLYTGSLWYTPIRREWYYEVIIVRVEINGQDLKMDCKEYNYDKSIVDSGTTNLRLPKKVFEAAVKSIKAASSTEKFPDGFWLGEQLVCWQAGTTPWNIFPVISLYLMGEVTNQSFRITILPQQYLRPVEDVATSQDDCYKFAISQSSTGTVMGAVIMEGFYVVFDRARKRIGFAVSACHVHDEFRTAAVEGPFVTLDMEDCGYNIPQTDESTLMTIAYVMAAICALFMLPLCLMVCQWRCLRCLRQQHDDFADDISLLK

In the case of `COC[C@]12CC[C@H]([C@@](C)(c3cc(NC(=O)c4ncc(Cl)cc4C)ccc3F)N=C1N)S2(=O)=O` [Example 142, N-(3-((1R,2R,5S)-4-amino-5-(methoxymethyl)-2-methyl-8,8-dioxido-8-thia-3-azabicyclo[3.2.1]oct-3-en-2-yl)-4-fluorophenyl)-5-chloro-3-methyl-2-pyridinecarboxamide], the IC50 (commonly the concentration that gives 50% inhibition) in assay [1] (average IC50, first procedure) was above 400 µM; in assay [2] (setting [4]), 0.093 µM; in assay [3] (setting [5]), 0.482 µM.
Take `Cc1cc(Cl)cnc1C(=O)Nc1ccc(F)c([C@@]2(C)N=C(N)[C@@]3(C)CCC[C@@H]2S3(=O)=O)c1` [Example 3, N-(3-((1S,2R,5R)-4-Amino-2,5-dimethyl-9,9-dioxido-9-thia-3-azabicyclo[3.3.1]non-3-en-2-yl)-4-fluorophenyl)-5-chloro-3-methylpicolinamide]: the IC50 in assay [1] stood at 119 µM; in assay [2] (setting [6]) it was 0.002 µM; in assay [3] (setting [7]) it was 0.007 µM.
For the compound `C[C@]1(c2cc(Nc3nccc4nc(C(F)(F)F)cnc34)ccc2F)N=C(N)[C@@]2(C)CC[C@@H]1S2(=O)=O` [Example 86, N-(3-((1S,2R,5R)-4-amino-2,5-dimethyl-8,8-dioxido-8-thia-3-azabicyclo[3.2.1]oct-3-en-2-yl)-4-fluorophenyl)-2-(trifluoromethyl)pyrido[3,4-b]pyrazin-5-amine], the IC50 in assay [1] (average IC50, first procedure) was above 44.4 µM; in assay [2] (setting [4]), 0.023 µM; in assay [3] (setting [5]), 0.067 µM.
With `C[C@]1(c2cc(NC(=O)c3c(F)cc(Br)cc3F)ccc2F)N=C(N)[C@@]2(C)CC[C@@H]1S2(=O)=O` [Example 125, N-(3-((1S,2R,5R)-4-amino-2,5-dimethyl-8,8-dioxido-8-thia-3-azabicyclo[3.2.1]oct-3-en-2-yl)-4-fluorophenyl)-4-bromo-2,6-difluorobenzamide], the IC50 in assay [1] (average IC50, first procedure) is above 400 µM; in assay [2] (setting [4]), 0.103 µM; in assay [3] (setting [5]), 0.065 µM.
On the same counts, the results for `CC#CCOc1ccc(C(=O)Nc2ccc(F)c([C@@]3(C)N=C(N)[C@@]4(C)CC[C@@H]3S4(=O)=O)c2)c(F)c1` [Example 138, N-(3-((1S,2R,5R)-4-amino-2,5-dimethyl-8,8-dioxido-8-thia-3-azabicyclo[3.2.1]oct-3-en-2-yl)-4-fluorophenyl)-4-(2-butyn-1-yloxy)-2-fluorobenzamide] are above 400 µM, 0.061 µM and 0.122 µM.
With `Cc1cc(Cl)cnc1C(=O)Nc1ccc(F)c([C@@]2(C)N=C(N)[C@]3(C)CCC[C@H]2S3(=O)=O)c1` [Example 4, N-(3-((1R,2R,5S)-4-Amino-2,5-dimethyl-9,9-dioxido-9-thia-3-azabicyclo[3.3.1]non-3-en-2-yl)-4-fluorophenyl)-5-chloro-3-methylpicolinamide], the IC50 in assay [1] is 270 µM; in assay [2] (setting [6]) it was 0.007 µM; in assay [3] (setting [7]) it was 0.02 µM.
Take `C[C@]12CC[C@H]([C@@](C)(c3cc(Nc4ncc(F)c5cc(OCC6CC6)cnc45)ccc3F)N=C1N)S2(=O)=O` [Example 136, N-(3-((1R,2R,5S)-4-amino-2,5-dimethyl-8,8-dioxido-8-thia-3-azabicyclo[3.2.1]oct-3-en-2-yl)-4-fluorophenyl)-3-(cyclopropylmethoxy)-5-fluoro-1,7-naphthyridin-8-amine]: the IC50 worked out at 5340 µM in assay [1] (average IC50, first procedure); 0.061 µM in assay [2] (setting [4]); 0.253 µM in assay [3] (setting [5]).
On the same counts, the results for `CC#CCOc1cnc2c(Nc3ccc(F)c([C@@]4(C)N=C(N)[C@]5(C)CC[C@H]4S5(=O)=O)c3)ncc(F)c2c1` [Example 135, N-(3-((1R,2R,5S)-4-amino-2,5-dimethyl-8,8-dioxido-8-thia-3-azabicyclo[3.2.1]oct-3-en-2-yl)-4-fluorophenyl)-3-(2-butyn-1-yloxy)-5-fluoro-1,7-naphthyridin-8-amine] are 614 µM, 0.003 µM and 0.021 µM.
For `Cc1c(C(=O)Nc2ccc(F)c([C@@]3(C)N=C(N)[C@@]4(C)CC[C@@H]3S4(=O)=O)c2)nc2ccc(Cl)cn12` [Example 25, N-(3-((1S,2R,5R)-4-Amino-2,5-dimethyl-8,8-dioxido-8-thia-3-azabicyclo[3.2.1]oct-3-en-2-yl)-4-fluorophenyl)-6-chloro-3-methylimidazo[1,2-a]pyridine-2-carboxamide], the results for the IC50 in assay [1], in assay [2] (setting [6]) and in assay [3] (setting [7]) were 318 µM, 0.021 µM and 0.004 µM, respectively.
Regarding `CC#CCOc1cnc(C(=O)Nc2ccc(F)c([C@@]3(C)N=C(N)[C@@]4(CF)CC[C@@H]3S4(=O)=O)c2)cn1` [Example 94, N-(3-((1S,2R,5R)-4-amino-5-(fluoromethyl)-2-methyl-8,8-dioxido-8-thia-3-azabicyclo[3.2.1]oct-3-en-2-yl)-4-fluorophenyl)-5-(2-butyn-1-yloxy)-2-pyrazinecarboxamide], the IC50 in assay [1] (average IC50, first procedure) was determined as 257 µM; in assay [2] (setting [4]) it was 0.0005 µM; in assay [3] (setting [5]) it was 0.0002 µM.
On the same counts, the results for `C[C@]12CC[C@H]([C@@](C)(c3cc(NC(=O)c4ccc(C#CC5CC5)cn4)ccc3F)N=C1N)S2(=O)=O` [Example 65, N-(3-((1R,2R,5S)-4-amino-2,5-dimethyl-8,8-dioxido-8-thia-3-azabicyclo[3.2.1]oct-3-en-2-yl)-4-fluorophenyl)-5-(cyclopropylethynyl)-2-pyridinecarboxamide] are above 400 µM, 0.007 µM and 0.016 µM.
`COc1ccc(C(=O)Nc2ccc(F)c([C@@]3(C)N=C(N)[C@@]4(C)CC[C@@H]3S4(=O)=O)c2)c(F)c1` [Example 123, N-(3-((1S,2R,5R)-4-amino-2,5-dimethyl-8,8-dioxido-8-thia-3-azabicyclo[3.2.1]oct-3-en-2-yl)-4-fluorophenyl)-2-fluoro-4-methoxybenzamide]: the IC50 stood at 1620 µM in assay [1] (average IC50, first procedure); 0.13 µM in assay [2] (setting [4]); 0.083 µM in assay [3] (setting [5]).
Take `C[C@]1(c2cc(Nc3ncnc4cc(Cl)cnc34)ccc2F)N=C(N)[C@@]2(C)CC[C@@H]1S2(=O)=O` [Example 130, N-(3-((1S,2R,5R)-4-amino-2,5-dimethyl-8,8-dioxido-8-thia-3-azabicyclo[3.2.1]oct-3-en-2-yl)-4-fluorophenyl)-7-chloropyrido[3,2-d]pyrimidin-4-amine]: the half-inhibitory concentration (IC50) was 363 µM in assay [1] (average IC50, first procedure); 0.005 µM in assay [2] (setting [4]); 0.004 µM in assay [3] (setting [5]).
As for `Cc1cc(Cl)cnc1C(=O)Nc1ccc(F)c([C@@]2(CF)N=C(N)[C@]3(C)CC[C@H]2S3(=O)=O)c1` [Example 72, N-(3-((1R,2S,5S)-4-amino-2-(fluoromethyl)-5-methyl-8,8-dioxido-8-thia-3-azabicyclo[3.2.1]oct-3-en-2-yl)-4-fluorophenyl)-5-chloro-3-methyl-2-pyridinecarboxamide], the IC50 in assay [1] (average IC50, first procedure) was above 400 µM; in assay [2] (setting [4]) it was 0.024 µM; in assay [3] (setting [5]) it was 0.111 µM.
On the same counts, the results for `Cc1cc(C(F)(F)F)cnc1C(=O)Nc1ccc(F)c([C@@]2(C)N=C(N)[C@]3(CF)CC[C@H]2S3(=O)=O)c1` [Example 93, N-(3-((1R,2R,5S)-4-amino-5-(fluoromethyl)-2-methyl-8,8-dioxido-8-thia-3-azabicyclo[3.2.1]oct-3-en-2-yl)-4-fluorophenyl)-3-methyl-5-(trifluoromethyl)-2-pyridinecarboxamide] are 1590 µM, 0.04 µM and 0.035 µM.
On the same counts, the results for `C[C@]1(c2cc(Nc3ncc(F)c4cc(O)cnc34)ccc2F)N=C(N)[C@@]2(C)CC[C@@H]1S2(=O)=O` [Example 39, (1R,4R,5S)-2-amino-4-(2-fluoro-5-((5-fluoro-3-hydroxy-1,7-naphthyridin-8-yl)amino)phenyl)-1,4-dimethyl-8-thia-3-azabicyclo[3.2.1]oct-2-ene 8,8-dioxide] are 191 µM, 0.001 µM and 0.009 µM.
With `Cc1cc(Cl)cnc1C(=O)Nc1ccc(F)c([C@@]2(C)N=C(N)[C@]3(C)CC[C@H]2S3(=O)=O)c1` [Example 26, N-(3-((1R,2R,5S)-4-Amino-2,5-dimethyl-8,8-dioxido-8-thia-3-azabicyclo[3.2.1]oct-3-en-2-yl)-4-fluorophenyl)-5-chloro-3-methylpicolinamide], the concentration for half-maximal inhibition (IC50) in assay [1] came to 577 µM; in assay [2] (setting [6]), 0.008 µM; in assay [3] (setting [7]) it was 0.017 µM.
On the same counts, the results for `Cc1cc(OC(F)F)cnc1C(=O)Nc1ccc(F)c([C@@]2(C)N=C(N)[C@@H]3CCC[C@H]2S3(=O)=O)c1` [Example 18, N-(3-((1R,2R,5S)-4-Amino-2-methyl-9,9-dioxido-9-thia-3-azabicyclo[3.3.1]non-3-en-2-yl)-4-fluorophenyl)-5-(difluoromethoxy)-3-methylpicolinamide] are 690 µM, 0.043 µM and 0.018 µM.
With `COCc1ccc(C(=O)Nc2ccc(F)c([C@@]3(C)N=C(N)[C@@]4(C)CC[C@@H]3S4(=O)=O)c2)nc1` [Example 90, N-(3-((1S,2R,5R)-4-amino-2,5-dimethyl-8,8-dioxido-8-thia-3-azabicyclo[3.2.1]oct-3-en-2-yl)-4-fluorophenyl)-5-(methoxymethyl)-2-pyridinecarboxamide], the IC50 in assay [1] (average IC50, first procedure) is 3420 µM; in assay [2] (setting [4]), 0.057 µM; in assay [3] (setting [5]), 0.02 µM.
